# Values quoted from earlier work, collected in article PMC6912862 (ACS Medicinal Chemistry Letters, 2019).
# Values joined by “and” are separate entries in the source; they are usually repeats but may differ in a detail not shown here. Equal values may be shown once.
# Assays:
# [1] = system: HeLa cells; conditions: cisplatin comparison
# [2] = system: HeLa xenograft; conditions: same conditions (2.0 mg/kg), p < 0.05
smiles,measurement,setting,value
"N.N.[Cl][Pt][Cl] [cisplatin, cis-[PtCl2(NH3)2]]",Cell accumulation of Pt,[1],4.11 ± 0.59 (nmol of Pt)/10^6 cells
same,"Inhibition of tumor growth (IR), cisplatin-treated groups",[2],35.2% and 35.2 ± 5.8%
